Paper PMC13083723 (Patterns, 2026)

Tested on: Vero-E6 cells
Experiment: cells
Type: cell-based
Conditions: Chlorocebus sabaeus, Vero C1008, 24 h, read-out: PL_Result

Structure (SMILES)	activation at 10 µM [%]
CCCNC(=O)N1N=C(c2ccc(N)cc2)c2cc3c(cc2C1C)OCO3 (stereo not drawn) [SPE_A77218119]	7.61
CCOC(=O)Nc1ccc2c(c1)N(C(=O)CN(CC)CC)c1ccccc1CC2 [SPE_K24570280]	3.49
COC(F)(F)C(Cl)Cl [SPE_K06152156]	-2.25
CC(=O)NC1[C@@H](O)OC(CO)[C@@H](O)[C@H]1O (stereo partly drawn) [SPE_A92872453]	-7.39
Nc1nc(NC2CC2)cc(-c2cccc(Cl)c2Cl)n1 [SPE_K01054709]	-5.46
CC(C)NCC(O)c1ccc(O)c(O)c1 (stereo not drawn) [SPE_A04322457]	-1.28
O=C(NCc1ccc(Oc2ccccc2)cc1)c1nc(-c2cc(Br)c(O)c(Br)c2)no1 [SPE_K84892605]	-10.4
C=CCN1CC[C@]23c4c5ccc(O)c4O[C@H]2[C@@H](OCCOCCOCCOCCOCCOCCOCCOC)CC[C@@]3(O)[C@H]1C5 [SPE_K41458421]	-3.45
C[C@]12C=CC(=O)C=C1CCC1C2[C@@H](O)C[C@@]2(C)C1CC[C@]2(O)C(=O)COC(=O)CCC(=O)O (stereo partly drawn) [SPE_A78391468]	3.52
Cc1ccc(-c2nc3ccc(C)cn3c2CC(=O)N(C)C)cc1 [SPE_K44876623]	-2.13
CCN(CC)CCN(Cc1ccc(-c2ccc(C(F)(F)F)cc2)cc1)C(=O)Cn1c(SCc2ccc(F)cc2)nc(=O)c2c1CCC2 [SPE_K19085898]	-5.09
NC(C(=O)O)c1cc(O)cc(O)c1 (stereo not drawn) [SPE_A20589515]	2.18
COc1ccc2cc3[n+](cc2c1OC)CCc1cc2c(cc1-3)OCO2 [SPE_K14796088]	-2.9
CC1(C)O[C@@H]2CC3C4C[C@H](F)C5=CC(=O)C=CC5(C)C4C(O)CC3(C)[C@]2(C(=O)CO)O1 (stereo partly drawn) [SPE_A65449987]	6.74
COc1cc(COc2cc(N)c(Cl)cc2C(=O)CCC2CCN(CCNS(C)(=O)=O)CC2)cc(OC)c1 [SPE_K20742498]	-9.12
CC1CCN(C(c2ccc(F)cc2)c2ccc(C(C)C(=O)O)cc2-c2ccc(C(F)(F)F)cc2)CC1 (stereo not drawn) [SPE_A66521565]	-6.16
CC(C)(C)NCC(O)c1ccccc1Cl (stereo not drawn) [SPE_A37441042]	4.82
Cc1c(C(=O)NCc2cccnc2)nn(-c2ccc(Cl)cc2Cl)c1-c1ccc(Cl)cc1 [SPE_K71315565]	4.2
CC(=O)OCC(=O)[C@@]1(O)CC[C@H]2[C@@H]3CCC4=CC(=O)C=C[C@]4(C)[C@@]3(F)[C@@H](O)C[C@@]21C [SPE_K29173907]	-3.84
C=CCc1cc(OC)c(O)c(C(=O)NCCO)c1 [SPE_K60102752]	-3.89
O=[N+]([O-])c1cc(Cl)ccc1S(=O)(=O)N1CCN(Cc2ccccc2)CC1 [SPE_K45519571]	3.29

Structure (SMILES)	activation at 10 µM [%]
Cc1cccc(NC(=O)c2ccc(C(F)(F)F)cc2C(=O)O)n1 [SPE_K47816470]	-2.17
O=c1n(CCCN2CCN(c3cccc(Cl)c3)CC2)nc2ccccn12 [SPE_K70778732]	-8.41
CC(=O)Nc1nc(C)c(-c2ccc(Cl)c(S(=O)(=O)NCCO)c2)s1 [SPE_K29395450]	-9.8
O=C1c2ccccc2C(Cc2ccnc(F)c2)(Cc2ccnc(F)c2)c2ccccc21 [SPE_K89274813]	-6.43
COc1ccccc1N1CCN(CCCCNC(=O)c2ccc3ccccc3c2)CC1 [SPE_K17378184]	28.8
Cn1cccc1/C=C1\C(=O)NC(=O)c2ccccc21 [SPE_K61665160]	-5.42
C[C@H](NC(=O)[C@@H](O)c1cc(F)cc(F)c1)C(=O)N[C@@H]1C(=O)N(C)c2ccccc2-c2ccccc21 [SPE_K20013301]	-13.5
CN1C2CCCC1CC(NC(=O)c1nn(C)c3ccccc13)C2 (stereo not drawn) [SPE_A10967948]	3.5
Cc1c(N(C)C)c(=O)n(-c2ccccc2)n1C [SPE_K12568846]	-3.72
OCCN1C[C@@H](O)[C@@H](O)C(O)C1CO (stereo partly drawn) [SPE_A63310107]	-7.51
Clc1ccc(C(Cn2ccnc2)OCc2c(Cl)cccc2Cl)c(Cl)c1 (stereo not drawn) [SPE_A93353767]	0.354
O=C1C(Cl)=C(N2CCOCC2)C(=O)N1c1ccc(Cl)c(Cl)c1 [SPE_K79555887]	5.74
COc1ccc(CNC(=O)c2sc3nc(C)cc(C)c3c2N)cc1 [SPE_K87727457]	-11.5
Cc1csc(-c2nnc(Nc3ccc(Oc4ncccc4-c4ccnc(N)n4)cc3)c3ccccc23)c1 [SPE_K21728777]	-11.5
Cc1nc(N)sc1-c1ccnc(Nc2ccc(N3CCOCC3)cc2)n1 [SPE_K64866502]	-7.46
CC(=O)OCC(=O)[C@@]1(O)CCC2C3CCC4=CC(=O)CC[C@]4(C)C3[C@@H](O)C[C@@]21C (stereo partly drawn) [SPE_A65767837]	-13.7
CCCCC/C=C\C=C/CCCCCCCCC(=O)O [SPE_K26222048]	-6.49
O=[N+]([O-])c1cncn1CCN1CCOCC1 [SPE_K79145628]	-10.4
CCCCCCCCCCCCCCCc1cccc(OCC(=O)NCCO)c1 [SPE_K26358347]	-8.8
Cc1cc(NCCO)nc(-c2ccc(Br)cc2)n1 [SPE_K07656463]	-1.9
C[C@@]12C[C@@]3(O)O[C@@H](O1)[C@]1(COC(=O)c4ccccc4)[C@H]3C[C@@]12O[C@@H]1O[C@H](CO)[C@@H](O)[C@H](O)[C@H]1O [SPE_K83631119]	4.42

Structure (SMILES)	activation at 10 µM [%]
O=C(NC(=O)c1c(F)cccc1Cl)NC1c2ccccc2-c2ccccc21 [SPE_K24527118]	-7.81
COc1ccc([C@H]2CNC(=O)C2)cc1OC1CCCC1 [SPE_K65856711]	-5.06
CC(C)CN(C[C@@H](O)[C@H](Cc1ccccc1)NC(=O)O[C@H]1CCOC1)S(=O)(=O)c1ccc(N)cc1 [SPE_K47827687]	0.458
Cn1c(=O)[nH]c2ncn(C)c2c1=O [SPE_K24084088]	-5.64
Cn1cc(C2=C(c3cn(C4CCN(Cc5ccccn5)CC4)c4ccccc34)C(=O)NC2=O)c2ccccc21 [SPE_K79404599]	-2.44
C#CCN(C)Cc1ccccc1 [SPE_K83597974]	-2.77
CNC(=O)c1ccccc1Nc1nc(Nc2ccc(N3CCOCC3)cc2OC)ncc1Cl [SPE_K21025364]	15.8
COc1cc2c(cc1OC)[C@@]13CCN4CC5=CCOC6CC(=O)N2C1[C@H]6[C@H]5C[C@H]43 (stereo partly drawn) [SPE_A41995253]	1.19
CC(C)C[C@@H](C(=O)N[C@@H](Cc1ccc(OCc2ccccc2)cc1)C(=O)NC(C)(C)C)N(C)Cc1ccc(C(C)(C)C)cc1 [SPE_K04426574]	-3.22
CC(C)[C@]12O[C@H]1[C@@H]1O[C@]13[C@]1(O[C@H]1C[C@H]1C4=C(CC[C@@]13C)C(=O)OC4)[C@@H]2O [SPE_K81258678]	-5.53
CCOC(=O)Nc1ccc2c(c1)N(C(=O)CCN(CC)CC)c1ccccc1S2 [SPE_K10667240]	-10.8
Cn1cc(-c2ccc(F)c(C(F)(F)F)c2)nc1C1CCN(c2ncnc3[nH]ncc23)CC1 [SPE_K21833260]	-1.12
Nc1nc(Nc2ccc(S(N)(=O)=O)cc2)nn1C(=O)c1c(F)cccc1F [SPE_K11636097]	-9.77
CCCCc1ccc2[nH]c(NC(=O)OC)nc2c1 [SPE_K02407574]	-11.6
Cc1ccc(-n2sc(=O)n(Cc3ccc(F)cc3)c2=O)cc1 [SPE_K08893438]	8.86
CCCCCCCCCCCCCCCCCC(=O)OCC(O)[C@H]1OC[C@H](O)[C@H]1O (stereo partly drawn) [SPE_A70197423]	-4.54
CCOCCn1c(C2CCN(CCc3ccc(C(C)(C)C(=O)O)cc3)CC2)nc2ccccc21 [SPE_K51937257]	-5.44
C=CCN1C[C@H](C)N([C@H](c2ccc(C(=O)N(CC)CC)cc2)c2cccc(OC)c2)C[C@H]1C [SPE_K29546239]	1.37
NNC(=O)c1ccncc1 [SPE_K87202646]	0.348
O=C(NCCN1CCN(c2ncccn2)CC1)C12CC3CC(CC(C3)C1)C2 [SPE_K67789209]	-11.4
O=C1NC(=O)c2c1c1c3ccccc3[nH]c1c1[nH]c3ccccc3c21 [SPE_K72726508]	12.7

Structure (SMILES)	activation at 10 µM [%]
Fc1ccc(Cl)cc1-c1nc(Nc2ccncc2)c2nccnc2n1 [SPE_K24566386]	-5.24
CN(C)c1nc(N)c(C(=O)Nc2cccnc2)nc1Cl [SPE_K68633617]	-11.7
CCc1cc2c(cc1N1CCC(N3CCOCC3)CC1)C(C)(C)c1[nH]c3cc(C#N)ccc3c1C2=O [SPE_K11267252]	0.894
CCOC(=O)c1cc2ccc(O)cc2oc1=O [SPE_K53438416]	-0.478
N#Cc1ccc(N2CCN(C(=O)COc3ccc4[nH]cc(CCN)c4c3)CC2)cc1 [SPE_K31092604]	1.38
Fc1ccc(CN2CCC(Nc3ccc(C(F)(F)F)nn3)CC2)cc1F [SPE_K31802667]	4.7
COc1ccccc1N1CCN(CCN2C(=O)c3ccccc3C(C)(C)C2=O)CC1 [SPE_K93188295]	-15
Cc1cc(N2CCOCC2)ccc1Nc1nc(NC2CCCCC2)c2nc[nH]c2n1 [SPE_K45551181]	-0.298
COC(=O)C1=C(C)NC(C)=C(C(=O)OCC(C)C)C1c1ccccc1[N+](=O)[O-] (stereo not drawn) [SPE_A84465106]	0.581
Cn1cc(-c2cc(Oc3cc(F)c(NC(=O)C4(C(=O)Nc5ccccc5)CC4)cc3F)ccn2)cn1 [SPE_K49246350]	-0.953
O=C(O)Cc1ccc(CCNS(=O)(=O)c2ccc(Cl)cc2)cc1 [SPE_K26813177]	-0.423
CNC(=O)c1cc2c(cn1)[nH]c1ccccc12 [SPE_K61951118]	-1.18
CCN(CCO)CCCOc1ccc2c(Nc3cc(CC(=O)Nc4cccc(F)c4)n[nH]3)ncnc2c1 [SPE_K63923597]	-6.57
Cc1cn(C2CC(N=[N+]=[N-])C(CO)O2)c(=O)[nH]c1=O (stereo not drawn) [SPE_A33692381]	-1.92
COc1[nH]c2ccc(F)cc2c1C(=O)OCC1CCN(CCNS(C)(=O)=O)CC1 [SPE_K62594868]	-2.59
O=S(=O)(NCC1CC1)c1ccc(Nc2nccc(N3CCCc4cc(O)ccc43)n2)cc1 [SPE_K94659840]	3.48
COc1ccccc1N1CCN(CCCCN2C(=O)c3ccccc3C2=O)CC1 [SPE_K69195780]	-5.05
CC(=O)NCCc1c[nH]c2ccccc12 [SPE_K73700643]	-6.27
